Measurements taken from patent US12466839B2, “Allosteric AKT inhibitors for use in the treatment of Hereditary Hemorrhagic Telangiectasia” (VADERIS THERAPEUTICS AG, priority 2020, dated 2025).

Columns and labels:
[1] = target: T1, PAC1 (Homo sapiens, UniProt P41586); experiment: Millipore Drug Discovery Safety and Liability Panel; type: cell-based
T1 construct: Millipore

[2] = target: T2, GPR14 (Homo sapiens, UniProt Q9UKP6); experiment: as above; type: cell-based
T2 construct: purchased Millipore

[3] = target: T3, 5-HT2B (Homo sapiens, UniProt P41595); experiment: as above; type: cell-based
T3 construct: purchased Millipore

[4] = target: T4, D1 (Homo sapiens, UniProt P21728); experiment: as above; type: cell-based
T4 construct: purchased Millipore

[5] = target: T5, BB2 (Homo sapiens, UniProt P30550); experiment: as above; type: cell-based
T5 construct: purchased Millipore

[6] = target: T6, S1P3 (Homo sapiens, UniProt Q99500); experiment: as above; type: cell-based
T6 construct: Millipore

[7] = target: T7, GPR109A (Homo sapiens, UniProt Q8TDS4); experiment: as above; type: cell-based
T7 construct: purchased Millipore

[8] = test system: minK (Homo sapiens); experiment: Cardiac ion channel profile; type: cell-based
[9] = target: T8, ADRA2A (Homo sapiens, UniProt P08913); experiment: Millipore Drug Discovery Safety and Liability Panel; type: cell-based
T8 construct: purchased Millipore

[10] = target: T9, A1 (Homo sapiens, UniProt P30542); experiment: as above; type: cell-based
T9 construct: purchased Millipore

[11] = target: T10, LPA3 (Homo sapiens, UniProt Q9UBY5); experiment: as above; type: cell-based
T10 construct: purchased Millipore

[12] = target: T11, AT1 (Homo sapiens, UniProt P30556); experiment: as above; type: cell-based
T11 construct: purchased Millipore

[13] = target: T12, GnRH (Homo sapiens, UniProt P30968); experiment: as above; type: cell-based
T12 construct: purchased Millipore

[14] = target: T13, M2 (Homo sapiens, UniProt P08172); experiment: as above; type: cell-based
T13 construct: purchased Millipore

[15] = test system: MCF7 tumor cells; experiment: IC50 in MCF7 tumor cells in vitro; type: cell-based; settings: Homo sapiens
[16] = target: AKT2 (Homo sapiens, UniProt P31751); experiment: Panel of 450 kinases; type: biochemical
[17] = target: T14, SST4 (Homo sapiens, UniProt P31391); experiment: Millipore Drug Discovery Safety and Liability Panel; type: cell-based
T14 construct: Millipore

[18] = target: T15, OPRD1 (Homo sapiens, UniProt P41143); experiment: as above; type: cell-based
T15 construct: Millipore

[19] = target: T16, 5-HT2A (Homo sapiens, UniProt P28223); experiment: as above; type: cell-based
T16 construct: purchased Millipore

[20] = target: T17, FPR1 (Homo sapiens, UniProt P21462); experiment: as above; type: cell-based
T17 construct: purchased Millipore

[21] = target: AKT3 (Homo sapiens, UniProt Q9Y243); experiment: Biochemical kinase assay
[22] = target: PDK1 (Homo sapiens, UniProt O15530); experiment: Panel of 450 kinases and 10-point titration curve; type: biochemical
[23] = test system: mutated forms of all three AKT isoforms containing inactive pleckstrin homology (PH) domains; experiment: Biochemical kinase assay, PH-domain mutants
[24] = target: T18, PK1 (Homo sapiens, UniProt Q8TCW9); experiment: Millipore Drug Discovery Safety and Liability Panel; type: cell-based
T18 construct: Millipore

[25] = target: T19, OPRM1 (Homo sapiens, UniProt P35372); experiment: as above; type: cell-based
T19 construct: Millipore

[26] = target: T20, NK3 (Homo sapiens, UniProt P29371); experiment: as above; type: cell-based
T20 construct: purchased Millipore

[27] = target: T21, EP3 (Homo sapiens, UniProt P43115); experiment: as above; type: cell-based
T21 construct: purchased Millipore

[28] = target: T22, VPAC2 (Homo sapiens, UniProt P41587); experiment: as above; type: cell-based
T22 construct: Millipore

[29] = target: T23, EP2 (Homo sapiens, UniProt P43116); experiment: as above; type: cell-based
T23 construct: purchased Millipore

[30] = read-out: ANTAGONIST mean % inhibition
[31] = read-out: AGONIST mean % increase in activity

T23 sequence (P43116 whole entry): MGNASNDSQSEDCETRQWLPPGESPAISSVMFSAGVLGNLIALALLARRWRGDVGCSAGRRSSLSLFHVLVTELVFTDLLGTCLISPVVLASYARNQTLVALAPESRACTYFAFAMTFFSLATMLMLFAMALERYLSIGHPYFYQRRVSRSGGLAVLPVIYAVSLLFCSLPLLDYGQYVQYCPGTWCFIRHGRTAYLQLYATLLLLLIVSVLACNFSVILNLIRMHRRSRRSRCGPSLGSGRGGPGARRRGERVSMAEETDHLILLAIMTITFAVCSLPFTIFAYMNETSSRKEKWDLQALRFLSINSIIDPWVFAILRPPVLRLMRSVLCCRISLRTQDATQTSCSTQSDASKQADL
Sequence of PDK1 (O15530 whole entry, canonical isoform): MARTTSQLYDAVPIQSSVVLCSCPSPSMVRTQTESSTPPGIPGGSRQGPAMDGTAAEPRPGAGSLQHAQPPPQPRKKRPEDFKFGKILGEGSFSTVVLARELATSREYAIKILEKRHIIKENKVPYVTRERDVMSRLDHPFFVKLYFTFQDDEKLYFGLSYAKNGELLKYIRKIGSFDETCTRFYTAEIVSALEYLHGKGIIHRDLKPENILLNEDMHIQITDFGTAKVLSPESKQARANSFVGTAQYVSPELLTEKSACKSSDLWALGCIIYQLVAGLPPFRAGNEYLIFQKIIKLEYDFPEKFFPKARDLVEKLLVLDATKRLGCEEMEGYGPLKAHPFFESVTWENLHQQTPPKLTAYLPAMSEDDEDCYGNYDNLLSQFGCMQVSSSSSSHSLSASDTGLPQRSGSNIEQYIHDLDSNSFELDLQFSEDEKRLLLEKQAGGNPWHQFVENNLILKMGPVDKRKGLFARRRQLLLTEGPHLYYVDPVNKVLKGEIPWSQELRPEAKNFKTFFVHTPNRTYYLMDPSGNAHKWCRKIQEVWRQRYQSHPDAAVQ
T7 sequence (Q8TDS4 whole entry, species assumed): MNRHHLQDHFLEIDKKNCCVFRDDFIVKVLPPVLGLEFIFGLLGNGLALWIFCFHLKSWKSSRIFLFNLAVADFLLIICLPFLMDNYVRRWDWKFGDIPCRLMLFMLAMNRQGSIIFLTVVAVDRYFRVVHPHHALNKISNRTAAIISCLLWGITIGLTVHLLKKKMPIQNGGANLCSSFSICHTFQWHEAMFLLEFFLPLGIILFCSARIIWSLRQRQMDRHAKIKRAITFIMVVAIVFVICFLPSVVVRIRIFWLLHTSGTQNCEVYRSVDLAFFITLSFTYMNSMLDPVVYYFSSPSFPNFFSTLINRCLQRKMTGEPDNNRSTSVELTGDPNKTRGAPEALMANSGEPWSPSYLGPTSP
T15 sequence (P41143 whole entry, species assumed): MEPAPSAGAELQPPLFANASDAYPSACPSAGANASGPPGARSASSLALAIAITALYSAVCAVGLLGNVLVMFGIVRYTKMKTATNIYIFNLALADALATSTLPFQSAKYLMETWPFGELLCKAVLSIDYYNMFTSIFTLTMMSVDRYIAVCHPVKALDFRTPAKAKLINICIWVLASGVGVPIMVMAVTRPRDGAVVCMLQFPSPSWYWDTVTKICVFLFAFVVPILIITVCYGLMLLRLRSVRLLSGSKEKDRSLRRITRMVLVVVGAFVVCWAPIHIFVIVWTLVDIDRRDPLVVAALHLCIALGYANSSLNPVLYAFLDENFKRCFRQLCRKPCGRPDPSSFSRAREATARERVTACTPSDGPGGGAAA
T3 sequence (P41595 whole entry, species assumed): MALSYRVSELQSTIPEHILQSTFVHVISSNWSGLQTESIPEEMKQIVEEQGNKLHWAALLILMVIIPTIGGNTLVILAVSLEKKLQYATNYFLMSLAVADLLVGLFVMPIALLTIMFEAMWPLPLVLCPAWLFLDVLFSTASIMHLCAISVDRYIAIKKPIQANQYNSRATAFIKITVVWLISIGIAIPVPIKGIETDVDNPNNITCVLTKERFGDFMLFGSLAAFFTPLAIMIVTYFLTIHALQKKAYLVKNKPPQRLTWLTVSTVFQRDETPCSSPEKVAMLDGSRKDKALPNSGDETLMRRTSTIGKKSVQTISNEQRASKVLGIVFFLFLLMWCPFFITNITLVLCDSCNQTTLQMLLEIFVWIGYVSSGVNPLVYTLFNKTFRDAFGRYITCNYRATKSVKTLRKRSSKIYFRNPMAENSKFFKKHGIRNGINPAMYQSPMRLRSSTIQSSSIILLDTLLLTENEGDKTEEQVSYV
T19 sequence (P35372 whole entry, species assumed): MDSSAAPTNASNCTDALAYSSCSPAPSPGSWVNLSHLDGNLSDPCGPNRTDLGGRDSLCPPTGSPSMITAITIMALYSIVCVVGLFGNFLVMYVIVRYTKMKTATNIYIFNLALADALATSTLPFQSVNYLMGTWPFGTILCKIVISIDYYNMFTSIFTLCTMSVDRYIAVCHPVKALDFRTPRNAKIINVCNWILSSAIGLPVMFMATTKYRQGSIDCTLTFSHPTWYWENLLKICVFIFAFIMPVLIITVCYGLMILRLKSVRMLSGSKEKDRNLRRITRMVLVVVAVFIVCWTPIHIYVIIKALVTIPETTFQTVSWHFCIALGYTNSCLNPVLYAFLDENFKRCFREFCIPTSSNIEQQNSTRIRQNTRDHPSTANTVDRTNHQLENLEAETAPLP
T2 sequence (Q9UKP6 whole entry, species assumed): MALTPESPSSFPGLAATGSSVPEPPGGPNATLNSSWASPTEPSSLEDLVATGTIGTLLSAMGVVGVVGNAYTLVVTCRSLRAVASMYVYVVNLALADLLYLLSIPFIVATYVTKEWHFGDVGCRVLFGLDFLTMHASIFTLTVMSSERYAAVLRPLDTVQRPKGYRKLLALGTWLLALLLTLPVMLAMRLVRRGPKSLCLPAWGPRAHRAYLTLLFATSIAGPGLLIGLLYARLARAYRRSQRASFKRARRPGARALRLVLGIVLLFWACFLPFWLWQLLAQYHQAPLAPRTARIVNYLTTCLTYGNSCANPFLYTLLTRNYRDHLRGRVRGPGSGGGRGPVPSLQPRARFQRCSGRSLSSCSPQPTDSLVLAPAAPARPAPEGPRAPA
T18 sequence (Q8TCW9 whole entry): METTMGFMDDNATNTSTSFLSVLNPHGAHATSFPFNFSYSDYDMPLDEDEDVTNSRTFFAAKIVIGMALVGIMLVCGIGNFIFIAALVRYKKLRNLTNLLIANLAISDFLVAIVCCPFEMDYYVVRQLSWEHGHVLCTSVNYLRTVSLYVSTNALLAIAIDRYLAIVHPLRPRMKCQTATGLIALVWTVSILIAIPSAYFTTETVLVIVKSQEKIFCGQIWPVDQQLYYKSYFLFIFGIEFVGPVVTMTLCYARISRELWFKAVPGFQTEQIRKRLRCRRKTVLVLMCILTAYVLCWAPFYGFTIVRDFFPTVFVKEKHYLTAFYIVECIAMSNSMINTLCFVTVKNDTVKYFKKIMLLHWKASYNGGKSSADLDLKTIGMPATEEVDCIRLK
T21 sequence (P43115 whole entry): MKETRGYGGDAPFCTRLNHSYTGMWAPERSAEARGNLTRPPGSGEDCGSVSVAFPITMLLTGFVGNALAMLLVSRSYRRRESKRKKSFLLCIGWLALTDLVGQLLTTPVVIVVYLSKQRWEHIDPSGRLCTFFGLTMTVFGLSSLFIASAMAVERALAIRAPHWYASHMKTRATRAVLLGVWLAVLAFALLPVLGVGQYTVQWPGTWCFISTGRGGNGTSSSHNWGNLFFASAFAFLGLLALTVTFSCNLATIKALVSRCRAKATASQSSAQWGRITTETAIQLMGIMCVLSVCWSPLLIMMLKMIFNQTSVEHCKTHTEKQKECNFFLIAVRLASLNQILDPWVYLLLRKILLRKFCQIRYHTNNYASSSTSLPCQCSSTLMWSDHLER
T16 sequence (P28223 whole entry): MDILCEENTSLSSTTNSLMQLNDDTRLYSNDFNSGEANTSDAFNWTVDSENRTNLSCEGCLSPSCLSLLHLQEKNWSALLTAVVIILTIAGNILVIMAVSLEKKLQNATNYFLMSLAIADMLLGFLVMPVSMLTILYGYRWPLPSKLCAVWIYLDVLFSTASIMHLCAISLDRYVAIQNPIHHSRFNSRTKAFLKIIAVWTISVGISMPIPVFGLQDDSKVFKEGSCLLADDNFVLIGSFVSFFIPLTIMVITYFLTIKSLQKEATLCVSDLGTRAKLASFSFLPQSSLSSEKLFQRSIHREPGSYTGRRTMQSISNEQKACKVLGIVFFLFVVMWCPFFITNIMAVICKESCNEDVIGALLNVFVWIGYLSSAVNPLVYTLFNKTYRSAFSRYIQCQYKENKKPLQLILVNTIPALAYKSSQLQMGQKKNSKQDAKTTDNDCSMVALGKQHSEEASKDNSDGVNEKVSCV
T22 sequence (P41587 24-438): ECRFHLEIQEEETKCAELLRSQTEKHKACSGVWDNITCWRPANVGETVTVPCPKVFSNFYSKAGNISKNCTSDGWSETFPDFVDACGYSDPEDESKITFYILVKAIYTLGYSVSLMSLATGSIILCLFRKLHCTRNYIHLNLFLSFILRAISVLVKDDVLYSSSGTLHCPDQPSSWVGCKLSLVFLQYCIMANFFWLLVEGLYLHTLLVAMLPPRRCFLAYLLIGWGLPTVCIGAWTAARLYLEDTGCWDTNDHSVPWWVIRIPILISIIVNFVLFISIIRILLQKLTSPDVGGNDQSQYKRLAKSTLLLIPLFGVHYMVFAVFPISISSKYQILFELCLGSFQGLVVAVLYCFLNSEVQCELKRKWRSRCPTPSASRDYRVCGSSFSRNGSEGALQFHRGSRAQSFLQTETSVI
T11 sequence (P30556 whole entry): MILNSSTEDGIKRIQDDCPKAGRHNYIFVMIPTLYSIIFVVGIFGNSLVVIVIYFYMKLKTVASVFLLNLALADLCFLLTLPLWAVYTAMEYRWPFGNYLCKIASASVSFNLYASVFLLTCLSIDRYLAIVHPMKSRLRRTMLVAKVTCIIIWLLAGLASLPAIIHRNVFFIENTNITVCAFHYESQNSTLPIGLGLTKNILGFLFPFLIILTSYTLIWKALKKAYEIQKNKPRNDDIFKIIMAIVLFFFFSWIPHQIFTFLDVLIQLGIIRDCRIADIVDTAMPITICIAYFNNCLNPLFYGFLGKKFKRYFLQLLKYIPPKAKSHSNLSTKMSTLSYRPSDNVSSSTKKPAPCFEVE

SMILES: CCN1C(=O)COc2nc(-c3ccc(C4(N)CC(O)C4)cc3)c(-c3ccccc3)cc21.O=C(O)C(O)C(O)C(=O)O [VAD044, 6-(4-(1-amino-3-hydroxycyclobutyl)phenyl)-1-ethyl-7-phenyl-1H-pyrido[2,3-b][1,4]oxazin-2(3H)-one L-tartrate]
- activation at 10 µM ([1]; PAC1, 10 μM, read-out: AGONIST mean % increase in activity): -0.6%
- inhibition at 10 µM [1, 30]: 1.1%
- activation at 10 µM [2, 31]: 29.5%
- inhibition at 10 µM [2, 30]: 52.9%
- activation at 10 µM [3, 31]: 3.7%
- inhibition at 10 µM [3, 30]: 7.6%
- activation at 10 µM ([4]; D1, 10 μM, read-out: AGONIST mean % increase in activity): 1.5%
- inhibition at 10 µM [4, 30]: 18.7%
- activation at 10 µM ([5]; BB2, 10 μM, read-out: AGONIST mean % increase in activity): -0.9%
- inhibition at 10 µM [5, 30]: 0.9%
- activation at 10 µM ([6]; S1P3, 10 μM, read-out: AGONIST mean % increase in activity): -0.4%
- inhibition at 10 µM [6, 30]: -0.6%
- activation at 10 µM ([7]; GPR109A, 10 μM, read-out: AGONIST mean % increase in activity): -0.7%
- inhibition at 10 µM [7, 30]: 3.1%
- inhibition at 10 µM [8]: < 25%
- activation at 10 µM ([9]; ADRA2A, 10 μM, read-out: AGONIST mean % increase in activity): -0.2%
- inhibition at 10 µM [9, 30]: 11.8%
- activation at 10 µM ([10]; A1, 10 μM, read-out: AGONIST mean % increase in activity): 0%
- inhibition at 10 µM [10, 30]: 7.7%
- activation at 10 µM ([11]; LPA3, 10 μM, read-out: AGONIST mean % increase in activity): -0.7%
- inhibition at 10 µM [11, 30]: -0.2%
- activation at 10 µM ([12]; AT1, 10 μM, read-out: AGONIST mean % increase in activity): -0.1%
- inhibition at 10 µM [12, 30]: 5.4%
- activation at 10 µM ([13]; GnRH, 10 μM, read-out: AGONIST mean % increase in activity): -0.6%
- inhibition at 10 µM [13, 30]: 4%
- activation at 10 µM [14, 31]: 0%
- inhibition at 10 µM [14, 30]: 20.6%
- IC50 [15]: ~0.05 µM
- inhibition at 10 µM [16]: 95%
- activation at 10 µM ([17]; SST4, 10 μM, read-out: AGONIST mean % increase in activity): -0.8%
- inhibition at 10 µM [17, 30]: 16.5%
- activation at 10 µM ([18]; OPRD1, 10 μM, read-out: AGONIST mean % increase in activity): -0.9%
- inhibition at 10 µM [18, 30]: 2.8%
- activation at 10 µM [19, 31]: 1.3%
- inhibition at 10 µM [19, 30]: -0.7%
- activation at 10 µM ([20]; FPR1, 10 μM, read-out: AGONIST mean % increase in activity): -0.1%
- inhibition at 10 µM [20, 30]: 13.3%
- IC50 [21]: > 0.5 µM
- EC50 ([21]; read-out: EC50 value for the AKT3 isoform): > 0.5 µM
- inhibition at 10 µM ([22]; 10 μM): 77%
- IC50 ([22]; 10-point titration curve): > 10 µM
- inhibition of mutated AKT forms [23]: not inhibited
- inhibition at 10 µM ([24]; PK-1, read-out: ANTAGONIST mean % inhibition): -2.1%
- activation at 10 µM ([24]; PK-1, PK1, 10 μM, read-out: AGONIST mean % increase in activity): 0%
- inhibition at 10 µM ([25]; OPRM1, read-out: ANTAGONIST mean % inhibition): 2.4%
- activation at 10 µM ([25]; OPRM1, 10 μM, read-out: AGONIST mean % increase in activity): -2%
- activation at 10 µM ([26]; NK3, 10 μM, read-out: AGONIST mean % increase in activity): -0.4%
- inhibition at 10 µM [26, 30]: 16.9%
- activation at 10 µM ([27]; EP3, 10 μM, read-out: AGONIST mean % increase in activity): -0.1%
- inhibition at 10 µM [27, 30]: 9.2%
- activation at 10 µM ([28]; VPAC2, 10 μM, read-out: AGONIST mean % increase in activity): 0%
- inhibition at 10 µM [28, 30]: 6.2%
- activation at 10 µM ([29]; EP2, 10 μM, read-out: AGONIST mean % increase in activity): -1%
- inhibition at 10 µM [29, 30]: -0.5%
